The results in this text go back to ChEMBL document CHEMBL5136998, “Chasing a Breath of Fresh Air in Cystic Fibrosis (CF): Therapeutic Potential of Selective HDAC6 Inhibitors to Tackle Multiple Pathways in CF Pathophysiology” (J Med Chem, 2022).

The structures appear in SMILES notation.

The target of test [1] is T1, Histone deacetylase 2 (Homo sapiens, UniProt Q92769). The test can be described thus: Inhibition of human HDAC2 at 100 uM relative to control.
The target in test [2] is Histone deacetylase 4 (Homo sapiens) (UniProt P56524). The test can be described thus: Inhibition of human HDAC4 at 100 uM relative to control.
Histone deacetylase 4 (Homo sapiens), sequence (P56524 whole entry): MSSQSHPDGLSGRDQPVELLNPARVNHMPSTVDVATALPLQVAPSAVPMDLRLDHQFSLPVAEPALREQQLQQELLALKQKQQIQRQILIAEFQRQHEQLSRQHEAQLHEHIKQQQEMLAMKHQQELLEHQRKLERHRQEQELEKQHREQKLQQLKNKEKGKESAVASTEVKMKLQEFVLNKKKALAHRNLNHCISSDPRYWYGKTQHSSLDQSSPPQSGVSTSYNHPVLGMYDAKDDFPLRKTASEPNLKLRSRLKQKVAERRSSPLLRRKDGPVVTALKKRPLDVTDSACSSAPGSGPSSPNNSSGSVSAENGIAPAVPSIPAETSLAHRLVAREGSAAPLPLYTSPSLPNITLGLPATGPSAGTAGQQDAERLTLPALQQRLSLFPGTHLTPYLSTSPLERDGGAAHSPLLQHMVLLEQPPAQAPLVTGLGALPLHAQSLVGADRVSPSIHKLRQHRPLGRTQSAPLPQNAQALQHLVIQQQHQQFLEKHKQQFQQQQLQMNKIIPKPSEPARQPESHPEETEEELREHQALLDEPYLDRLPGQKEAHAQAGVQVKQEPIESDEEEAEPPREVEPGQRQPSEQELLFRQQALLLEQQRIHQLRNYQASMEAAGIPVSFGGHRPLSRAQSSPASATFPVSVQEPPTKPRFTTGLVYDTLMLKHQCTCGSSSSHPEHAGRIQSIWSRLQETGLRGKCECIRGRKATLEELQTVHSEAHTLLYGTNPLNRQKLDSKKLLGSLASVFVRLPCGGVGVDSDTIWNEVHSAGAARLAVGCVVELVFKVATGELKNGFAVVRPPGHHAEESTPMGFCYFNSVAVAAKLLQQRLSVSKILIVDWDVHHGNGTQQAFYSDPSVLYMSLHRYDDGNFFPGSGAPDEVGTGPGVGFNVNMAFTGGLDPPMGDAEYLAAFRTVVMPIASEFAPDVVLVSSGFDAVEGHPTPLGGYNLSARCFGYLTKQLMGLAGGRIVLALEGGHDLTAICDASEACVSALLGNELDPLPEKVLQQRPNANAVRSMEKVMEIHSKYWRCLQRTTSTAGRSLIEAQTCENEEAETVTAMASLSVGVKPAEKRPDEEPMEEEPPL
The target of test [3] is T2, Protein deacetylase HDAC6 (Homo sapiens) (UniProt Q9UBN7).
T2 sequence (whole entry): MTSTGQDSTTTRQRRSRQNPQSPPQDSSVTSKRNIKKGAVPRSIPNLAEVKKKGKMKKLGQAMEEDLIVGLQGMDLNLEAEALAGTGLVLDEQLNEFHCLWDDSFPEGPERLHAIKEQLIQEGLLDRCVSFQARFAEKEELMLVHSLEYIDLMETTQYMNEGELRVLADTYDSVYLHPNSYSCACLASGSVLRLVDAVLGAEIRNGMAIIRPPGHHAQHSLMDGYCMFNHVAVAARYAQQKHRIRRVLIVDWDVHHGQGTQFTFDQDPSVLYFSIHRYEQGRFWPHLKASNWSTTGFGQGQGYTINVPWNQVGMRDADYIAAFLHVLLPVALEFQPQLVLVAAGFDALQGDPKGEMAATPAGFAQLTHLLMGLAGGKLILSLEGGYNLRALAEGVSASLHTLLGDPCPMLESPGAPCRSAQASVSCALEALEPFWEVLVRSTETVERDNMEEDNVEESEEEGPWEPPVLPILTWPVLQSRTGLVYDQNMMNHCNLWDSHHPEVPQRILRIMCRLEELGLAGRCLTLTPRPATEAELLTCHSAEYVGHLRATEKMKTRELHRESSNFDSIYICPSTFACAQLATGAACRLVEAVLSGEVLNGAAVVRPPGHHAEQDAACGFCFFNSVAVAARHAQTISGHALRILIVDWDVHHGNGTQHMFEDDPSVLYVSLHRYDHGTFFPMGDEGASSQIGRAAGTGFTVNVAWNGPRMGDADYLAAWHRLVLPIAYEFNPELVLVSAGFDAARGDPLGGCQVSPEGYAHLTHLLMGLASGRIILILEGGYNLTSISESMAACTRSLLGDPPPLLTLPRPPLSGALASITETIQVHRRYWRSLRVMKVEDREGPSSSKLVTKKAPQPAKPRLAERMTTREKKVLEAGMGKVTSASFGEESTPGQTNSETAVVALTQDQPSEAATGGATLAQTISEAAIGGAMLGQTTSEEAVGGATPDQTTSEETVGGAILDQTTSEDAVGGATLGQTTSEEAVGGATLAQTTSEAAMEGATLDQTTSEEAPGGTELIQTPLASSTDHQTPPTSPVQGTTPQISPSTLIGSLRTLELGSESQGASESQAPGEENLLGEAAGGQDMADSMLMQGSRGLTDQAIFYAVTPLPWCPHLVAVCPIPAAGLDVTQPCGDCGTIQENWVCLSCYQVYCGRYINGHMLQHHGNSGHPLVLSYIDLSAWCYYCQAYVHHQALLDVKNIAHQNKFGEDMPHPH
The test can be described thus: Inhibition of HDAC6 derived from human HeLa cell nuclear extract at 100 uM incubated for 2 hrs relative to control. It is filed as cell-free.

Test [4] addresses T3, Histone deacetylase 1 (Homo sapiens, UniProt Q13547). Description: Inhibition of HDAC1 derived from human HeLa cell nuclear extract at 100 uM incubated for 2 hrs relative to control. It is filed as cell-free.
Test [5] can be described thus: Inhibition of human recombinant HDAC3/NcoR2 using RHKKAc as substrate.
For test [6], the target named is T3, Histone deacetylase 1. The test can be described thus: Inhibition of human recombinant HDAC1 using fluorogenic substrate.
Test [7] addresses T1, Histone deacetylase 2.
The target in test [8] is T4, Protein deacetylase HDAC6 (Homo sapiens, UniProt Q9UBN7).
T4 sequence (Q9UBN7 whole entry): T2 sequence (whole entry)
Description: Inhibition of HDAC6 (unknown origin).

For a further test, the target named is Histone deacetylase 3 (Homo sapiens, UniProt O15379). The test can be described thus: Inhibition of HDAC3 (unknown origin).
Histone deacetylase 3, sequence (O15379 whole entry): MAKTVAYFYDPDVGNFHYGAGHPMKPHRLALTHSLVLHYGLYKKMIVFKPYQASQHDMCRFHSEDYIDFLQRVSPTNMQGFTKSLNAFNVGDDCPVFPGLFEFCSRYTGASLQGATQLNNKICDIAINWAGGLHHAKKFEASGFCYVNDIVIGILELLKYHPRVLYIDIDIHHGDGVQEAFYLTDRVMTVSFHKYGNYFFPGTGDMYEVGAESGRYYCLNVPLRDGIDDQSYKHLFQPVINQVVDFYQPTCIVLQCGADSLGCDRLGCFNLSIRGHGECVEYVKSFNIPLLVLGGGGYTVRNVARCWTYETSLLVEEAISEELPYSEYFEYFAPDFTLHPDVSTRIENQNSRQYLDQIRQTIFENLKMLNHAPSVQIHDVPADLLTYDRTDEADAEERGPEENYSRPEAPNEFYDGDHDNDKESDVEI
A further test addresses T5, Histone deacetylase 8 (Homo sapiens, UniProt Q9BY41).
T5 sequence (Q9BY41 whole entry): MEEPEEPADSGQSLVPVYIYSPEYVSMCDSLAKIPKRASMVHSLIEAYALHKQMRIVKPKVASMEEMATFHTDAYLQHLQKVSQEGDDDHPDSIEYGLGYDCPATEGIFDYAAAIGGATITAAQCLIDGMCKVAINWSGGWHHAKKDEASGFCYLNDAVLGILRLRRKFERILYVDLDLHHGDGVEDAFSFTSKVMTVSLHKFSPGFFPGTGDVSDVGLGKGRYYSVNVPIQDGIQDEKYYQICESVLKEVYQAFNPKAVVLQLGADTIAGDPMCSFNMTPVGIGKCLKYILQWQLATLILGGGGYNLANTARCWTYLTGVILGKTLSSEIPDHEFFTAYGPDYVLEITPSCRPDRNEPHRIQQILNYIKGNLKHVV
The test can be described thus: Inhibition of HDAC8 (unknown origin).

Test [9] deals with T3, Histone deacetylase 1. The test can be described thus: Inhibition of HDAC1 (unknown origin).
The target of the next test is T6, Histone deacetylase 7 (Homo sapiens, UniProt Q8WUI4).
T6 sequence (Q8WUI4 whole entry): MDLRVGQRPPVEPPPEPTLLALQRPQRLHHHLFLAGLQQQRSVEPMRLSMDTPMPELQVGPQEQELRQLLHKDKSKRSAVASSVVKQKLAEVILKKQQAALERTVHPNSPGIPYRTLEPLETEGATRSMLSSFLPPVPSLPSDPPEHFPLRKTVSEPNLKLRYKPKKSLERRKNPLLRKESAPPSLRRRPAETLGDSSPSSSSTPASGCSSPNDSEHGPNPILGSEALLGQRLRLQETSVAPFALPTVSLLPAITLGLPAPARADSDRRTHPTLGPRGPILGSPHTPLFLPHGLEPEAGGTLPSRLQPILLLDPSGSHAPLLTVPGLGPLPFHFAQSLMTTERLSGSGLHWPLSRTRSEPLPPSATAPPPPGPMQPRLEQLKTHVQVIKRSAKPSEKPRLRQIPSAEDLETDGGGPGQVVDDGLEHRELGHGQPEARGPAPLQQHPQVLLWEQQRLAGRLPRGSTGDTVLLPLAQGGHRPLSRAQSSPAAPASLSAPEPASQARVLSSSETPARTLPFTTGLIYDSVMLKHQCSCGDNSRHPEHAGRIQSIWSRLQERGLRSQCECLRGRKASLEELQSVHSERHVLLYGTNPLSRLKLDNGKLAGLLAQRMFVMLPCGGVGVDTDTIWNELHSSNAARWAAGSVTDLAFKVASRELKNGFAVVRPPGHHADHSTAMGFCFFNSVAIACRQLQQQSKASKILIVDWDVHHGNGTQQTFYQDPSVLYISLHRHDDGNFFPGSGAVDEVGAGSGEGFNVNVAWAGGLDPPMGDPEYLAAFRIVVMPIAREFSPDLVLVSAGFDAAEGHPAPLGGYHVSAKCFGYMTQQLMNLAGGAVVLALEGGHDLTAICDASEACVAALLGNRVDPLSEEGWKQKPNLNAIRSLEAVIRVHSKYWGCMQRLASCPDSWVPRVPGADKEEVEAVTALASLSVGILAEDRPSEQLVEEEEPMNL
The test can be described thus: Inhibition of HDAC7 (unknown origin).

T3 sequence (Q13547 whole entry): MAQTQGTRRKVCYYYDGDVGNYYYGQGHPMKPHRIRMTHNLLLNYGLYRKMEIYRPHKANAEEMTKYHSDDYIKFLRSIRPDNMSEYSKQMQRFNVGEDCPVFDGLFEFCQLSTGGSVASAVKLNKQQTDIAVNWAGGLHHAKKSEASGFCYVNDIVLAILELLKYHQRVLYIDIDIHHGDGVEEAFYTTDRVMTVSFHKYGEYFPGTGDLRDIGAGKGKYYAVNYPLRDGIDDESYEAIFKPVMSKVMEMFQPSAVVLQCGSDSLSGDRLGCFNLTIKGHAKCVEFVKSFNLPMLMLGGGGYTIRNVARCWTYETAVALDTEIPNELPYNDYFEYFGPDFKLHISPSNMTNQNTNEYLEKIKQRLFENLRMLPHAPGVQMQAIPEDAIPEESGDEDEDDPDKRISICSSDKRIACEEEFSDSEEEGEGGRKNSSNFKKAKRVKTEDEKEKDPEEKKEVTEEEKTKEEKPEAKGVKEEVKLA
T1 sequence (Q92769 whole entry): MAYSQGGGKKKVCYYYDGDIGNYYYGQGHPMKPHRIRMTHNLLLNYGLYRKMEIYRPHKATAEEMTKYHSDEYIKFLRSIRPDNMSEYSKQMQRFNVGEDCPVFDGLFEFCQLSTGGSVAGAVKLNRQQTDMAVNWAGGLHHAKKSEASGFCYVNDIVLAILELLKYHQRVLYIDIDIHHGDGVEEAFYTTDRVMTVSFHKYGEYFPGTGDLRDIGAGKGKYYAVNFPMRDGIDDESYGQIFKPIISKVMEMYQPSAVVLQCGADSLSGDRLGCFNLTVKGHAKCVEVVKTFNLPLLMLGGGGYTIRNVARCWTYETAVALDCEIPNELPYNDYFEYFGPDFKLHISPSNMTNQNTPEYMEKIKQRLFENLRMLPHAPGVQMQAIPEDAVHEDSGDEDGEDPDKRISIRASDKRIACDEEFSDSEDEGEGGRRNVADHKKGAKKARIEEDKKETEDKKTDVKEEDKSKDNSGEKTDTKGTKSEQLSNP

Turning to `Oc1ccc(/C=C/c2cc(O)cc(O)c2)cc1`, the inhibition on Histone deacetylase 2 [1] stood at 21%; in test [2], 23%; in test [3] it was 32%; against Histone deacetylase 1 [4], 39%.

Take `CN1CCc2c(c3ccccc3n2Cc2ccc(C(=O)NO)cc2)C1` [TUBASTATIN A]: in test [5], the IC50 was greater than 30 µM.

On to `O=C(O)CCCc1ccccc1` [SODIUM PHENYLBUTYRATE], for which, on Histone deacetylase 1 [6], the IC50 amounted to 162 µM.

For the molecule `CC(C)(C)OC(=O)Nc1cccc(C(=O)/C=C/c2ccc(/C=C/C(=O)NO)cc2)c1`, the 50% inhibitory concentration (IC50) against Histone deacetylase 2 [7] amounted to 2.1 µM; in test [8], 0.011 µM; against Histone deacetylase 3 it was 10.8 µM; at Histone deacetylase 8, 1.2 µM.

With `CCCC(=O)O` [BUTYRIC ACID], the IC50 against Histone deacetylase 2 [7] is 400 µM; at Histone deacetylase 1 [9], 300 µM; on Histone deacetylase 7, 300 µM.

Regarding `C[C@@H]1CN(Cc2ccc(C(=O)NO)cc2)C[C@H](C)N1Cc1cccc(Cl)c1`, the concentration for half-maximal inhibition (IC50) was found to be 11.4 µM against Histone deacetylase 1 [9] and 0.041 µM in test [8].
